In patent US6048856A, “Heterocyclic compounds” (Novo Nordisk A/S, priority 1997, dated 2000) one finds inhibition data, which are given here for 1 compound.

This test relates to histamine induced paw oedema. The test can be described thus: Histamine induced paw oedema test in rats. Type of test: in vivo, male Sprague-Dawley rats. The following applies: Rattus norvegicus, ip; intraperitoneal, 15 minutes before anaesthetics; paw swelling 20 minutes after histamine 50 microliter. The procedure:
Compounds of formula I may be used to treat all painful, hyperalgesic and/or inflammatory conditions in which C-fibres play a pathophysiological role by eliciting neurogenic pain or inflammation, i.e.:
I. Histamine Induced Paw Oedema
The rat histamine paw oedema test was performed essentially as described by Amann et al. (Europ. J. Pharmacol. 279, 227-231, 1995). In brief 250-300 g male Sprague-Dawley rats were anaesthetized with pentobarbital sodium, and placed on a 32 degree Celsius heated table. Ten minutes later histamine (50 micoliter, 3 mg/ml) was injected in the right hind paw and 20 minutes hereafter the paw swelling was determined by water plethysmography (Ugo Basile). Test compounds were administered intraperitoneally at 15 minutes before the anaesthetics.
Values for inhibition of histamine induced oedema response for some representative compounds are recorded in table 1.

Each structure is given as a SMILES string. Structures can show the parent of a compound that is named as a salt.

With `N#CC(c1ccccc1)C1CCN(CCC=C2c3ccccc3CCc3ccccc32)CC1` (stereo not shown) [Example 5, 2-(1-(3-(10,11-Dihydro-5H-dibenzo[a,d]cyclohepten-5-ylidene)-1-propyl)-4-piperidyl)-2-phenylacetonitrile hydrochloride], the inhibition at 1 mg/kg turned out to be 30%.

By inhibition is commonly meant the share of the control response that was lost under treatment. Low readings indicate a response near the control, high ones a response far below the control.
